Results: patent US10221178B2, “Purine inhibitors of human phosphatidylinositol 3-kinase delta” (MERCK SHARP & DOHME CORP., priority 2015, dated 2019)

Key:
PI3Kdelta = PI3Kdelta (Homo sapiens (Human), UniProt O00329); experiment: HTRF PI3K biochemical assay, delta isoform; conditions: 0.3 nM enzyme, 100 uM ATP, 5 uM PIP2, form screened: Neutral
Description: (§1) HTRF PI3K Biochemical Assay to Measure Intrinsic Potency of Compound Inhibitors
(§2) The PI3-Kinase biochemical assays were developed to measure the intrinsic potency and compound dependent inhibition of the alpha, beta, delta, and gamma PI3K isoform enzymes.
(§3) This assay was developed and further optimized from a kit produced by Upstate (Millipore catalog #33-047) and has been configured for HTS (high throughput screening) and SAR screening. Briefly, this procedure exploits the exquisite specificity and high affinity binding of enzyme reaction substrate phosphatidyl(3,4,5)triphosphate (PIP3) to the GRP1 pleckstrin homology (PH) domain to generate the signal. In the absence of PIP3, an HTRF (Homogeneous Time-Resolved Fluorescence energy transfer) complex is formed consisting of europium (Eu)-labeled anti-GST, GSTtagged GRP1-PH domain, biotin-PIP3 and streptavidin conjugated APC. The native PIP3 produced by PI3-Kinase activity disrupts in a competitive manner the biotin-PIP3 from the PH domain, resulting in the loss of energy transfer (HTRF complex) and a decrease in the signal. The format of this assay is the same for all 4 isoforms of PI3K; the differences lie in the concentration of enzyme used to achieve robust assay window. The alpha, beta, and delta assays are run at 0.5, 1, and 0.3 nM enzymes and the gamma assay is run at 5 nM enzyme. The ATP concentration is 100 uM in the alpha, beta, and delta assays and 50 uM ATP in the gamma assay. All reactions are run at 5 uM PIP2.
(§4) Compounds are serially diluted (3-fold in 100% DMSO) across a 384-well polypropylene source plated from column 3 to column 12 and column 13 to column 22, to yield 10 concentration dose response for each test compound. Columns 1, 2, 23 and 24 contain either only DMSO or pharmacological known control inhibitor. Once titrations are made, 2.5 nL of the compounds on 384 well plates are reformatted and transferred by acoustic dispense in quadruplicates to a 1536 assay plate (Greiner) to assay across all four PI3K isoform enzymes.
(§5) The PI3-Kinase biochemical assay was optimized using the HTRF kit provided by Upstate (Millipore). The assay kit contains six reagents: 1) 4× Reaction Buffer; 2) native PIP2 (substrate); 3) Stop (EDTA); 4) Detection Mix A (Streptavidin-APC); 5) Detection Mix B (Eu-labeled Anti-GST plus GST-tagged PH-domain); 6) Detection Mix C. In addition, the following items were obtained or purchased; PI3Kinase (alpha 14-602, beta 14-603, gamma 14-558 and delta 14-604 from Upstate; Millipore), dithiothreitol (Sigma, D-5545), Adenosine-5′ triphosphate (InVitrogen, Cat#AS001A), native PIP3 (PI(3,4,5)P3, diC8, H^+, CELLSIGNALS, INC. Cat #907) DMSO (Sigma, 472301).
(§6) PI3Kinase Reaction Buffer is prepared by dilution the stock 1:4 with de-ionized water. DTT, PIP2 and Biotin-PIP3 were added to 1536 assay plate at a final concentration of 5 mM, […] on the day of use. Enzyme addition and compound pre-incubation are initiated by the addition of 1.25 ul of PI3K (at twice its final concentration) in the 1× reaction buffer to all wells using a BioRaptor. Plates are incubated at RT for 15 minutes. Reactions are initiated by addition of 1.25 ul of 2× substrate solution (PIP2 and ATP in 1× reaction buffer) using BioRaptor. Plates are incubated in humidified chamber at RT for one hour. Reactions are quenched by addition of 0.625 uL of stop solution to all wells using the BioRaptor. The quenched reactions are then processed to detect product formation by adding 0.625 uL of Detection Solution to all wells using the BioRaptor (Detection mix C, Detection Mix A, and Detection Mix B combined together in an 18:1:1 ratio prepared 2 hours prior to use). Following a one hour incubation in the dark, the HTRF signal is measured on the Envision plate reader set for 330 nm excitation and dual emission detection at 620 nM (Eu) and 665 nM (APC).

PI3Kalpha = PI3Kalpha (Homo sapiens (Human), UniProt P42336); experiment: HTRF PI3K biochemical assay, alpha isoform (selectivity versus PI3Kalpha); conditions: relative ratio (PI3K-alpha IC50 value/PI3K-delta IC50 value); form screened: Neutral
PI3Kalpha, sequence (P42336 whole entry, canonical isoform): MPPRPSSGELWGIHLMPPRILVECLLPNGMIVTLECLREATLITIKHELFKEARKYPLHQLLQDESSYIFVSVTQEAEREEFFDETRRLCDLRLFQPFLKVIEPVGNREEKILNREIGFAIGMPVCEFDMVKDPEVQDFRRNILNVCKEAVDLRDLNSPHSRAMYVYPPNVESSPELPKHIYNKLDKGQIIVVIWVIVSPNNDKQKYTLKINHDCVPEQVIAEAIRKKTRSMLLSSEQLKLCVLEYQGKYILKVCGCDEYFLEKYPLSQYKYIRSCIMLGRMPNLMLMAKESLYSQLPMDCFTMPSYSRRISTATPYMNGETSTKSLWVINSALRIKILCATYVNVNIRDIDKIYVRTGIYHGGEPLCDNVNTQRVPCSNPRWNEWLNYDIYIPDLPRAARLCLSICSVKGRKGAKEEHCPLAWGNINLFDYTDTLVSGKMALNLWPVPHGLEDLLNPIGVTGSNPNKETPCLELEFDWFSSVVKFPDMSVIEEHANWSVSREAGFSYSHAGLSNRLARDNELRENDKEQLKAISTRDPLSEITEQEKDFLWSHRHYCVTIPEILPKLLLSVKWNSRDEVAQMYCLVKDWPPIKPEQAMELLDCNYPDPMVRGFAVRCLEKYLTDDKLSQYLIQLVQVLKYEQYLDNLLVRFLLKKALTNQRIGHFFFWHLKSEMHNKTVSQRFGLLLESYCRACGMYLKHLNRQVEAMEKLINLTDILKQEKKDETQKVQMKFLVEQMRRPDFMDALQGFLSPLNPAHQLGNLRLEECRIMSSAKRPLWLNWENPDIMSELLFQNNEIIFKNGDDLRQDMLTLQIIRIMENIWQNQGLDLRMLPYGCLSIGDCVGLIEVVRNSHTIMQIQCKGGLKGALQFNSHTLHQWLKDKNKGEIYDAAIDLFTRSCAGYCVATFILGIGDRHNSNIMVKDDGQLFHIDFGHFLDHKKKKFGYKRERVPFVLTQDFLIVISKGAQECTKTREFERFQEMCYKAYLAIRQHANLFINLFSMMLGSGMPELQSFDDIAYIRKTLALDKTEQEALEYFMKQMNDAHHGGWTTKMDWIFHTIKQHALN
PI3Kalpha, sequence (P27986 whole entry partner, canonical isoform): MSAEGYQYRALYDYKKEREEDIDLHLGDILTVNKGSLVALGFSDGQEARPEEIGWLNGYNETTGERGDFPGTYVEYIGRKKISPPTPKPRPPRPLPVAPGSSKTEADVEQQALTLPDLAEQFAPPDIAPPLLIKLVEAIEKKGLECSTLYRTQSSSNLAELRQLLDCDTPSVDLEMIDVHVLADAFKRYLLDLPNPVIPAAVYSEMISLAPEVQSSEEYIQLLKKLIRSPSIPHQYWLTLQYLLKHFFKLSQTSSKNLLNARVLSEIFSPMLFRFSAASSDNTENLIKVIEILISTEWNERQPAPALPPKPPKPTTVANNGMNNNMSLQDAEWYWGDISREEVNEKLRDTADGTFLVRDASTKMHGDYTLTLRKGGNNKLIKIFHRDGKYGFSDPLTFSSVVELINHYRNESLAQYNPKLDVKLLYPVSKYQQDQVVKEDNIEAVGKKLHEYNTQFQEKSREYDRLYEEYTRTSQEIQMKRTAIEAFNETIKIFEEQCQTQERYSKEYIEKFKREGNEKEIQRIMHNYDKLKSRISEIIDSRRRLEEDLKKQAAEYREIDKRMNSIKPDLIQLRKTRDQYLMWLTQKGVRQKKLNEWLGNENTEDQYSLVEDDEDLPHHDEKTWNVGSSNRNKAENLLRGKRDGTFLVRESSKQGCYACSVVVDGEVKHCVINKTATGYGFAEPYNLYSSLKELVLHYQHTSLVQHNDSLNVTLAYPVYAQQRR
Description: as §1, §2, §3, §4, §5
as §6, with “[…]. […]” for “(APC).”

PI3Kdelta, sequence (O00329 whole entry, canonical isoform): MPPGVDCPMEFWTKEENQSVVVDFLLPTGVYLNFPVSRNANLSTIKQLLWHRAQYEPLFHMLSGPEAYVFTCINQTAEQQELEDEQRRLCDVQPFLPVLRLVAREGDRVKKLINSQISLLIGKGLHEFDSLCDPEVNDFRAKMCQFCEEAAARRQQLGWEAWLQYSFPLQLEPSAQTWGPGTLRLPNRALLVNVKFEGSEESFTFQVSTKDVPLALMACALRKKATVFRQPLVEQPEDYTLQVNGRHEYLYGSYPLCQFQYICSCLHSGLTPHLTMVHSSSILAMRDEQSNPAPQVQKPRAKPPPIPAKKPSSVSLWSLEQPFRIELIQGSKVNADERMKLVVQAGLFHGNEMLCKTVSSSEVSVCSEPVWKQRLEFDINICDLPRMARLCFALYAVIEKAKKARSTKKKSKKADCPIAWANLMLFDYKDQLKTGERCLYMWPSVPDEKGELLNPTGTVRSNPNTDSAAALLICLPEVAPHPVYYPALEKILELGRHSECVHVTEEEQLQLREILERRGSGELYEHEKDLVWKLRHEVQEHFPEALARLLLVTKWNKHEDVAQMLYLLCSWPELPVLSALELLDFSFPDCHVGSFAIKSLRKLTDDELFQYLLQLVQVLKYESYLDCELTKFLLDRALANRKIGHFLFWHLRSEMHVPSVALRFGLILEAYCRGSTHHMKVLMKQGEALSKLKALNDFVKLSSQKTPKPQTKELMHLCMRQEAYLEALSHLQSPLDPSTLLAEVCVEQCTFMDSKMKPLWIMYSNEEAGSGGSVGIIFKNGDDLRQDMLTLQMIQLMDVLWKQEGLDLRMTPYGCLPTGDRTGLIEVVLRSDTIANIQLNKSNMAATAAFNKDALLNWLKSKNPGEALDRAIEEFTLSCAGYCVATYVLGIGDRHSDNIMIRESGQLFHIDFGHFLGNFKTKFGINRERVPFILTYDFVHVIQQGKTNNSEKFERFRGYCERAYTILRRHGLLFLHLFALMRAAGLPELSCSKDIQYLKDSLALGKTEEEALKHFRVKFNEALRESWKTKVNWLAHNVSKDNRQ
PI3Kdelta, sequence (P27986 whole entry partner, canonical isoform): as the sequence (P27986 whole entry partner, canonical isoform) above

SMILES	IC50 (PI3Kdelta) [nM]	Selectivity versus PI3Kalpha (PI3Kalpha)
CCC(Oc1ncnc2c1nc(-c1cnn(CC)c1C)n2C)C(=O)N1CCOCC1 (racemic) [Compound 1-1, (R and S)-8-(1-ethyl-5-methyl-1H-pyrazol-4-yl)-9-methyl-6-[1-(morpholin-4-ylcarbonyl)propoxy]-9H-purine]	320	>10
CCC(Oc1ncnc2c1nc(-c1cnn(CC)c1C)n2C)C(=O)N1CCCCC1 (racemic) [Compound 1-2, (R and S)-8-(1-ethyl-5-methyl-1H-pyrazol-4-yl)-9-methyl-6-[1-(piperidin-1-ylcarbonyl)propoxy]-9H-purine]	240	>10
CCC(Nc1ncnc2c1nc(-c1cnn(CC)c1C)n2C)C(=O)N1CCC(F)(F)CC1 (racemic) [Compound 1-5, (R and S)-N-{1-[(4,4-difluoropiperidin-1-yl)carbonyl]propyl}-8-(1-ethyl-5-methyl-1H-pyrazol-4-yl)-9-methyl-9H-purin-6-amine]	9	>10
CC[C@H](Nc1ncnc2c1nc(-c1cnc(C)nc1)n2CC)C(=O)N1CCCC(OC)CC1 (mixture of isomers) [Compound 2-9, 9-ethyl-N-{(1S)-1-[(4-methoxyazepan-1-yl)carbonyl]propyl}-8-((R and S)-2-methylpyrimidin-5-yl)-9H-purin-6-amine]	23	>10
CC[C@H](Nc1ncnc2c1nc(-c1cnc(C)nc1)n2CC)C(=O)N1CC2CCS(=O)(=O)C2C1 (mixture of isomers) [Compound 2-14, N-{(1S)-1-[((3a(R and S), 6a(R and S)-1,1-dioxidohexahydro-5H-thieno[2,3-c]pyrrol-5-yl)carbonyl]propyl}-9-ethyl-8-(2-methylpyrimidin-5-yl)-9H-purin-6-amine]	7	>10
CC[C@H](Nc1ncnc2c1nc(-c1cnc(C)nc1)n2CC)C(=O)N1CCC(C)C1 (mixture of isomers) [Compound 2-18, 9-ethyl-8-(2-methylpyrimidin-5-yl)-N-{(1S)-1-[((S and R)-3-methylpyrrolidin-1-yl)carbonyl]propyl}-9H-purin-6-amine]	31	>10
CC[C@H](Nc1ncnc2c1nc(-c1cnc(C)nc1)n2CC)C(=O)N1CCCC(C)C1 (mixture of isomers) [Compound 2-23, 9-ethyl-N-{(1S)-1-[((R and S)-3-methylpiperidin-1-yl)carbonyl]propyl}-8-(2-methylpyrimidin-5-yl)-9H-purin-6-amine]	9.3	>10
CC[C@H](Nc1ncnc2c1nc(-c1cnc(C)nc1)n2CC)C(=O)N1CCSC1C (mixture of isomers) [Compound 2-24, 9-ethyl-8-(2-methylpyrimidin-5-yl)-N-{(1S)-1-[((S and R)-2-methyl-1,3-thiazolidin-3-yl)carbonyl]propyl}-9H-purin-6-amine]	27	>10
CC[C@H](Nc1ncnc2c1nc(-c1cnc(C)nc1)n2CC)C(=O)N1CCOCC1CO (mixture of isomers) [Compound 2-37, {4-[(2S)-2-{[9-ethyl-8-(2-methylpyrimidin-5-yl)-9H-purin-6-yl]amino}butanoyl]-(R and S)-morpholin-3-yl}methanol]	64	>10
CCn1ncc(-c2nc3c(NC(C)C(=O)N4CCOCC4)ncnc3n2C)c1C (single isomer, unassigned) [Compound 1-7, (R or S)-8-(1-ethyl-5-methyl-1H-pyrazol-4-yl)-9-methyl-N-(1-methyl-2-morpholin-4-yl-2-oxoethyl)-9H-purin-6-amine]	24	>10
CCC(Nc1ncnc2c1nc(-c1cnc(C)nc1)n2CC)C(=O)N1CCOCC1 (single isomer, unassigned) [Compound 1-8, (R or S)-9-ethyl-8-(2-methylpyrimidin-5-yl)-N-[1-(morpholin-4-ylcarbonyl)propyl]-9H-purin-6-amine]	6.5	>10

Now from value to compound:

IC50 (PI3Kdelta) [nM]	Selectivity versus PI3Kalpha (PI3Kalpha)	SMILES
5.2	>10	CCn1c(-c2cnc(C)nc2)nc2c(NC(C(=O)N3C[C@@H](C)O[C@@H](C)C3)C3CC3)ccnc21 (single isomer, unassigned) [Compound 3-4, N-{(R or S)-1-cyclopropyl-2-[(cis)-2,6-dimethylmorpholin-4-yl]-2-oxoethyl}-3-ethyl-2-(2-methylpyrimidin-5-yl)-3H-imidazo[4,5-b]pyridin-7-amine]
30	>10	CCC(Nc1ncnc2c1nc(-c1cnc(C)nc1)n2CC)C(=O)N1CC(O)(C2CC2)C1 (single isomer, unassigned) [Compound 4-1, (S or R)-3-cyclopropyl-1-(2-{[9-ethyl-8-(2-methylpyrimidin-5-yl)-9H-purin-6-yl]amino}butanoyl)azetidin-3-ol]
6.1	>10	CC[C@H](Nc1ncnc2c1nc(-c1cnc(C)nc1)n2CC)C(=O)N1CC(=O)N(C)C(C)C1 (single isomer, unassigned) [Compound 4-5, (S or R)-4-[(2S)-2-{[9-ethyl-8-(2-methylpyrimidin-5-yl)-9H-purin-6-yl]amino}butanoyl]-1,6-dimethylpiperazin-2-one]
26	>10	CC[C@H](Nc1ncnc2c1nc(-c1cnc(C)nc1)n2CC)C(=O)N1CC(=O)N(C)C(C)C1 (single isomer, unassigned) [Compound 4-6, (S or R)-4-[(2S)-2-{[9-ethyl-8-(2-methylpyrimidin-5-yl)-9H-purin-6-yl]amino}butanoyl]-1,6-dimethylpiperazin-2-one]
38	>10	CCC(Nc1ncnc2c1nc(-c1cnc(C)nc1)n2CC)C(=O)N1CCn2c(CC(C)C)nnc2C1 (single isomer, unassigned) [Compound 5-1, (S or R)-9-ethyl-N-(1-{[3-(2-methylpropyl)-5,6-dihydro[1,2,4]triazolo[4,3-a]pyrazin-7(8H)-yl]carbonyl}propyl)-8-(2-methylpyrimidin-5-yl)-9H-purin-6-amine]
39	>10	CCC(Nc1ncnc2c1nc(-c1cnc(C)nc1)n2CC)C(=O)N1CCc2c(c(C(C)C)nn2C)C1 (single isomer, unassigned) [Compound 5-2, (S or R)-9-ethyl-N-(1-{[1-methyl-3-(1-methylethyl)-1,4,6,7-tetrahydro-5H-pyrazolo[4,3-c]pyridin-5-yl]carbonyl}propyl)-8-(2-methylpyrimidin-5-yl)-9H-purin-6-amine]
